Test results: patent US20110039762A1, “TARGETED ANTIMICROBIAL MOIETIES” (C3 JIAN, INC., priority 2009, published 2011)
Entries after “also recorded” stand apart in the source; their conditions may differ.

Tests used:
S. epidermidis = assay: Kill or inhibit growth/proliferation; morphology, biofilm and growth disruption (Tables 5, 6); type: cell-based, Staphylococcus epidermidis; parameters: key: A: Peptide aggregates; B: Less hyphal formation; Clumps; Diffuse clumps and small polyps; F: Diffuse growth; H: Thin; I: Growth inhibition; Microcolony formation; Rippled; Small polyps; Thick; W: Halo formation on top, microlonies on bottom; also: test concentration or dose not given here
[1] = tested on: microorganisms (e.g., bacteria, yeasts, fungi); assay: Targeting peptide binding to target microorganisms (Table 3); details: preferably 1x PBS; for Target(s): microorganism(s) the targeting peptide binds, peptide binding conducted in aqueous buffers varied by peptide solubility; for Target(s) (microorganisms bound by the targeting peptide): peptide binding in aqueous buffers varied by peptide solubility
MRSA = assay: Kill or inhibit growth/proliferation; morphology, biofilm and growth disruption (Tables 5, 6); type: cell-based, Methicillin-resistant Staphylococcus aureus; parameters: key: A: Peptide aggregates; B: Less hyphal formation; Clumps; Diffuse clumps and small polyps; F: Diffuse growth; H: Thin; I: Growth inhibition; Microcolony formation; Rippled; Small polyps; Thick; W: Halo formation on top, microlonies on bottom; also: test concentration or dose not given here
S. pneumoniae = assay: as above; type: cell-based, Streptococcus pneumoniae; parameters: key: A: Peptide aggregates; B: Less hyphal formation; Clumps; Diffuse clumps and small polyps; F: Diffuse growth; H: Thin; I: Growth inhibition; Microcolony formation; Rippled; Small polyps; Thick; W: Halo formation on top, microlonies on bottom
E. faecalis = assay: as above; type: cell-based, Enterococcus faecalis; parameters: key: A: Peptide aggregates; B: Less hyphal formation; Clumps; Diffuse clumps and small polyps; F: Diffuse growth; H: Thin; I: Growth inhibition; Microcolony formation; Rippled; Small polyps; Thick; W: Halo formation on top, microlonies on bottom; also: test concentration or dose not given here
microorganisms = assay: Peptides having multiple activities (targeting/binding, antimicrobial, growth or phenotype altering)
Source text: In certain embodiments, peptides described herein can have multiple activities. Thus for example, a peptide can have both binding/targeting activity and antimicrobial activity. Such peptides can be used, e.g., in a chimeric construct, for any or all of these properties. Thus, for example, a peptide designated “B” in Table 8 can be used as a targeting peptide. If it is also designated G or M it can also be used for antimicrobial activity.

C. jejuni = assay: Kill or inhibit growth/proliferation; morphology, biofilm and growth disruption (Tables 5, 6); type: cell-based, Campylobacter jejuni; parameters: key: A: Peptide aggregates; B: Less hyphal formation; Clumps; Diffuse clumps and small polyps; F: Diffuse growth; H: Thin; I: Growth inhibition; Microcolony formation; Rippled; Small polyps; Thick; W: Halo formation on top, microlonies on bottom; also: test concentration or dose not given here
E. coli = assay: as above; type: cell-based, Escherichia coli; parameters: key: A: Peptide aggregates; B: Less hyphal formation; Clumps; Diffuse clumps and small polyps; F: Diffuse growth; H: Thin; I: Growth inhibition; Microcolony formation; Rippled; Small polyps; Thick; W: Halo formation on top, microlonies on bottom; also: test concentration or dose not given here
For Organism, effect in this document: test concentration or dose not given here.

Row | Molecule | Organism, effect (S. epidermidis) | Target(s) [1] | Organism, effect (MRSA) | Organism, effect (S. pneumoniae) | Organism, effect (E. faecalis) | Activities (microorganisms) | Organism, effect (C. jejuni) | Organism, effect (E. coli) | Target(s) (microorganisms bound by the targeting peptide) [1]
1 | PF-393: peptide having multiple activities (chain 1 DLVQSILSEFKKSG; chain 2 DLVQSILSEFKKSG; Peptide with targeting and/or antimicrobial activity) | S. epidermidis (R) | S. epidermidis and E. coli and C. albicans and MRSA and S. pneumoniae and C. jejuni | MRSA (C) | S. pneumoniae (R) | E. faecalis (A) | G B | C. jejuni (R) |  | 
2 | PF-418: peptide having multiple activities (FFLVHFYIRKRKGKVSIFLNYF; Peptide with targeting and/or antimicrobial activity) | S. epidermidis (M) |  | MRSA (D) | S. pneumoniae (D) | E. faecalis (D) | G B | C. jejuni (D) | E. coli (C) | 
3 | PF-431: peptide having multiple activities (VAYAAICWW; Peptide with targeting and/or antimicrobial activity) | S. epidermidis (M) |  | MRSA (C) | S. pneumoniae (R) | E. faecalis (R) | G B | C. jejuni (R) |  | 
4 | PF-469: peptide having multiple activities (chain 1 YKVNYNNIDNHFNTLRH; chain 2 YKVNYNNIDNHFNTLRH; Peptide with targeting and/or antimicrobial activity) | S. epidermidis (D) |  | MRSA (D) | S. pneumoniae (D) | E. faecalis (D) | G B | C. jejuni (D) | E. coli (C) | 
5 | PF-576: peptide having multiple activities (chain 1 AYSGELPEPLVRKMSKEQVRSVMGK; chain 2 AYSGELPEPLVRKMSKEQVRSVMGK; Peptide with targeting and/or antimicrobial activity) | S. epidermidis (A) | M. luteus; also recorded: P. mirabilis; also recorded: E. coli; also recorded: P. aeruginosa; also recorded: C. albicans; also recorded: S. pneumoniae | MRSA (R) | S. pneumoniae (C) |  | G B | C. jejuni (C) | E. coli (A) | 
6 | PF-581: peptide having multiple activities (WTARARR; Peptide with targeting and/or antimicrobial activity) |  |  | MRSA (A) | S. pneumoniae (A) | E. faecalis (A) | G B | C. jejuni (A) |  | 
7 | PF-585: peptide having multiple activities (DYNHLLNVVQDWVNTN; Peptide with targeting and/or antimicrobial activity) | S. epidermidis (S) | S. epidermidis and E. coli and C. albicans and MRSA and S. pneumoniae and C. jeikeium | MRSA (S) | S. pneumoniae (R) | E. faecalis (A) | G B | C. jejuni (R) |  | 
8 | PF-586: peptide having multiple activities (FFNQANYFFKEF; Peptide with targeting and/or antimicrobial activity) | S. epidermidis (C) |  | MRSA (D) | S. pneumoniae (D) | E. faecalis (D) | G B | C. jejuni (D) | E. coli (C) | 
9 | PF-592: peptide having multiple activities (IMKNYKYFKLFIVKYALF; Peptide with targeting and/or antimicrobial activity) | S. epidermidis (M) |  | MRSA (D) | S. pneumoniae (D) | E. faecalis (D) | G B | C. jejuni (S) | E. coli (C) | 
10 | PF-595: peptide having multiple activities (LQNKIYELLYIKERSKLCS; Peptide with targeting and/or antimicrobial activity) | S. epidermidis (C) |  | MRSA (D) | S. pneumoniae (R) | E. faecalis (D) | G B | C. jejuni (D) | E. coli (C) | 
11 | PF-599: peptide having multiple activities (LFEIFKPKH; Peptide with targeting and/or antimicrobial activity) | S. epidermidis (M) |  | MRSA (C) | S. pneumoniae (R) | E. faecalis (A) | G B | C. jejuni (R) |  | S. epidermidis and P. mirabilis and E. coli and C. albicans and MRSA and S. pneumoniae and C. jeikeium
12 | PF-607: peptide having multiple activities (YIESDPRKFDYIFGAIRDH; Peptide with targeting and/or antimicrobial activity) | S. epidermidis (M) |  | MRSA (S) | S. pneumoniae (R) | E. faecalis (A) | G B | C. jejuni (R) |  | S. epidermidis and P. mirabilis and E. coli and MRSA and S. pneumoniae and C. jeikeium
13 | PF-609: peptide having multiple activities (TEIKLDNNEYLVLNLDDILGILK; Peptide with targeting and/or antimicrobial activity) |  |  | MRSA (C) | S. pneumoniae (R) | E. faecalis (A) | G B | C. jejuni (R) |  | P. mirabilis; also recorded: E. coli; also recorded: S. pneumoniae
14 | PF-614: peptide having multiple activities (GLDIYA; Peptide with targeting and/or antimicrobial activity) | S. epidermidis (M) |  |  | S. pneumoniae (R) | E. faecalis (A) |  | C. jejuni (R) |  | S. epidermidis; also recorded: E. coli; also recorded: C. jeikeium
15 | PF-389: peptide having multiple activities (Peptide with targeting and/or antimicrobial activity) chain 1: GLQFKEIAEEFHITTTALQQWHKDNGYPIYNKNNRK chain 2: GLQFKEIAEEFHITTTALQQWHKDNGYPIYNKNNRK | S. epidermidis (R) | S. epidermidis and C. albicans and MRSA and S. pneumoniae and E. faecalis and C. jeikeium | MRSA (C) | S. pneumoniae (D) | E. faecalis (R) | G B | C. jejuni (R) |  | 
